Laboratory results published in US12226405B2, “Compounds and compositions for inhibiting the activity of HIF2-alpha and their methods of use” (Novartis AG, priority 2020, dated 2025).

How the values were obtained:
[1] = system: HIF2α-dependent transcription in 786-O-HRE-Luc cells; assay: In vitro cellular hypoxia response element (HRE) reporter gene assay (RGA) for HIF2α; format: cell-based, human; conditions: 24 hours incubation
Experimental: (§1) Stock solutions of compounds were prepared at a concentration of 10 mM in DMSO and stored at 4° C. Where necessary to afford a full dose-response curve, the stock solutions were pre-diluted in DMSO to 1,000-fold the desired reduced start concentration. On the day after cell seeding, eleven 2-fold serial dilutions of each compound were dispensed directly into the cell assay plates using either HP 300D non-contact Digital Dispenser (TECAN) or a ATS100 acoustic dispenser (EDC Biosystems).
The ability of compounds to inhibit HIF2α- and HIF1α-dependent transcription was assessed in 786-O-HRE-Luc and RCC4-HRE-Luc cells, respectively. The putative unselective inhibition of firefly luciferase activity or expression was assessed in 786-O-UB6-Luc and RCC4-UB6-Luc cells, respectively. The reporter lines were generated as follows: 786-O (RRID: CVCL_1051) and RCC4 (RRID: CVCL_0498) clear cell renal carcinoma cell lines were obtained from ATCC and Celeste Simon (University of Pennsylvania), respectively. Either cell line was transduced with a lentiviral vector in which the expression of a PEST-destabilized version of firefly-luciferase is under the control of either a minimal promoter coupled to four copies of a minimal hypoxia response element (HRE) sequence (pLenti 4×HRE Luc PEST), or a promoter from the house-keeping UBC gene (pLenti UB6 Luc PEST). In short, for the construction of the pLenti 4×HRE Luc PEST vector, 4×HRE DNA oligonucleotides were synthesized, annealed and cloned into pGL4.27 plasmid vector (Promega) predigested with NheI and HindIII restriction enzymes. The sequence of the two DNA oligonucleotides was as follows: NheI 4×HRE HindIII FWD: […] (SEQ ID NO: 8); NheI 4×HRE HindIII REV […] (SEQ ID NO: 9). The 4×HRE Luc PEST fragment was then PCRed from this plasmid with restriction enzyme sites NheI and XhoI at the two ends, and inserted into pLenti6/BLOCK iT DEST (Thermo Fisher Scientific) predigested with NheI and XhoI restriction enzymes. For the construction of the pLenti UB6 Luc PEST vector, the Luc PEST sequence was PCRed from pGL4.27 (Promega) using EcoRV and XhoI restriction enzymes at the two ends, and inserted into pLenti6/UBC/V5/DEST (Thermo Fisher Scientific) predigested with the same enzymes. 786-O and RCC4 cells (300,000 per well of a 6 well plate) were infected in the presence of 10 μg/ml polybrene with lentivirus harvested two days after transfection of HEK293-FT (ThermoFisher Scientific #R70007) cells (80% confluent in a 100 cm^2 dish) with a mix of 1.5 ml OptiMEM (ThermoFisher Scientific #31985062) containing 3 μg of the desired plasmids and 9 μl of ViralPower Packaging mix (ThermoFisher Scientific #K497500), and 1.5 ml OptiMEM containing 36 μl Lipofectamine 2000 (ThermoFisher Scientific #11668019). Successfully infected cells were selected using blasticidin (Gibco #A11139-03) at a final concentration of 5 μg/ml. The resulting stable cell lines were named 786-O pLenti 4×HRE Luc PEST (short: 786-O-HRE-Luc), 786-O pLenti UB6 Luc PEST (short: 786-O-UB6-Luc), RCC4 pLenti 4×HRE Luc PEST (short: RCC4-HRE-Luc) and RCC4 pLenti UB6 Luc PEST (short: RCC4-UB6-Luc). All 4 cell lines were maintained in growth medium composed of DMEM (GIBCO #11995-065), 2 mM L-Glutamine (BioConcept #5-10K50-H), 10% fetal calf serum (Gibco #A31608-01), 1× Penicillin/Streptomycin (BioConcept #4-01F00-H), 1 mM Sodium pyruvate (BioConcept #5-60F00-H) and 5 μg/ml blasticidin (Gibco #A11139-03) at 37° C. in a humidified 5% CO2 incubator.
For the reporter gene assay, the individual cell lines were seeded at 2,500 cells/20 μL/well into white-wall, clear-bottom 384-well plates (Greiner #781098) and incubated over night at 37° C. prior to addition of serial compound dilutions as described above. […]

[2] = target: HIF2α PAS-B domain (236-350, biotinylated on the N-terminus) (Homo sapiens (Human), UniProt Q99814)
Sequence of HIF2α PAS-B domain (236-350, biotinylated on the N-terminus) (Q99814 236-350): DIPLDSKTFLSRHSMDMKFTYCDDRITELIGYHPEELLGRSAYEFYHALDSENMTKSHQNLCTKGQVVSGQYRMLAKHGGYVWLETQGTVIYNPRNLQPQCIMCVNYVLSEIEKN
Experimental: The assay buffer contained 50 mM Tris-HCl pH7 (Sigma), 20 mM NaCl (Fluka), 0.02% BSA (Sigma), 0.005% Triton X-100 (Pierce) and 1 mM DTT (Fluka). After a 30 min incubation period, 5 μL Streptavidin PVT SPA Beads (Perkin Elmer) at 1.2 mg/mL, diluted in the buffer, were added.

[3] = system: HIF2α-regulated expression of the endogenous target gene hEGLN3 in 786-O cells; assay: Cellular iScript assay for HIF2α (quantitative RT-PCR of hEGLN3); format: cell-based, human
Experimental: as §1
Compound-mediated modulation of the HIF2α-regulated expression of the endogenous target gene hEGLN3 (OMIM: 606426), as well as beta-actin (OMIM: 102630) as a house-keeping control, was assess in 786-O cells (RRID CVCL_1051) using a quantitative RT-PCR approach. In short, 786-O cells were maintained in growth medium composed of DMEM (GIBCO #11995-065), 2 mM L-Glutamine (BioConcept #5-10K50-H), 1× Penicillin/Streptomycin (BioConcept #4-01F00-H), 10% fetal calf serum (Gibco #A31608-01), 1 mM Sodium pyruvate (BioConcept #5-60F00-H). Cells were seeded at 1,000 cells/20 μL/well into white-wall, clear-bottom 384-well plates (Greiner #781098) and incubated over night at 37° C. prior to addition of serial compound dilutions as described above. Following incubation for 48 hours at 37° C., medium supernatant was discarded and the plate blotted dry by inverting on a tissue. The same procedure was repeated following one wash with 20 μL phosphate-buffered saline. Following addition of 25 μL/well iScript sample preparation reagent (BioRad #170-8899) using a 16-channel Matrix pipette, the plate was incubated for 2 min at room temperature. 20 μL lysate supernatant was then removed and transferred to a new 384 well plate (Costar #3656) and diluted 1:3 by adding 5 μL of the lysate to 10 μL H2O using a Bravo liquid handler (Agilent). 2 μL of the diluted lysate was added to the 8 μL of a mastermix containing 5 μL iTaq Universal Probes One-step kit (BioRad #172-5141), 0.25 μL iScript reverse transcription supermix (BioRad #1708840), 0.25 μL 40×HEX-ZEN-labeled TaqMan probe for beta-actin (IDT #Hs.PT.39a.22214847: Probe 5′ HEX-TCA TCC ATG/ZEN/GTG AGC TGG CGG-3′ (SEQ ID NO: 2) Iowa Black FQ, Primer 1: ACA GAG CCT CGC CTT TG (SEQ ID NO: 3); Primer 2: CCT TGC ACA TGC CGG (SEQ ID NO: 4) AG), 0.25 μL, 40×FAM-ZEN-labeled TaqMan probe for hEGLN3 (IDT #Hs.PT.58.189348: Probe 5′ 6-FAM-TTT GGC TTC/ZEN/TGC CCT TTC TTC AGC-3′ (SEQ ID NO: 5) Iowa Black FQ, Primer 1: CACGGTCAGTCTTCAGTGAG (SEQ ID NO: 6); Primer 2: CGCAACCAGATATGCTATGACT (SEQ ID NO: 7)), 2.25 μL RNase-free water, prelaid in a 384 well plate (ABI #4309849) using a 16-channel Matrix pipette. The plate was sealed with a PCR-compatible optical film (MicroAmp, ABI #4360954) and centrifuged (1500 rpm, 5 min, +4° C.) to collect all reagents in the bottom of the well and to remove bubbles. The plate content was amplified on a 7900HT thermal cycler (ABI) using the following conditions: Step 1: 50° C. for 10 min, Step 2: 95° C. for 3 min, Step 3 (40×): 95° C. for 15 s, 60° C. for 1 min. ROX (reaction volume 10 μL) was used as a passive reference. Data were collected with manual adjustment of the Ct threshold (beta-actin: 0.046, hEGLN3: 0.06) and were analyzed using the 2^(−ΔΔCt) method. Thus, for each sample, the following values were calculated: 2^(−Ct)a for beta-actin, 2^(−Ct)e for EGLN3, and 2^(−ΔCt) calculated as (2^(−Ct)e/2^(−Ct)a). The mean 2^(−ΔCt) as well as the corresponding standard deviation was calculated for each sample. Taking the DMSO-treated sample as a reference, the 2^(−ΔΔCt) for each sample was calculated as follows: 2^(−ΔΔCt)=2^(−ΔCt)sample/(2^(−ΔCt)DMSO). After calculating differential expression as 2^(−ΔΔCt) for each sample, it was then expressed as a percentage (×100) to obtain a dose-response curve in % of DMSO control and IC50s were calculated using a four-parametric fit model.

[4] = Homo sapiens, 786-0, 48 hours incubation

Fc1c(Br)ccc2c1CCC[C@@]21CN2C=C(C(F)(F)F)C=C(Cl)C2=N1 [Example 16, (S)-6′-bromo-8-chloro-5′-fluoro-6-(trifluoromethyl)-3′,4′-dihydro-2′H,3H-spiro[imidazo[1,2-a]pyridine-2,1′-naphthalene]]
IC50 ([1]; Homo sapiens): 0.372 µM
IC50 [2]: ≤ 0.006 µM
IC50 [3, 4]: 0.043 µM

O=C1c2c(ccc(Br)c2F)[C@]2(CN3C=C(C(F)(F)F)C=C(OC(F)F)C3=N2)CC1(F)F [Example 17, (S)-6′-bromo-8-(difluoromethoxy)-3′,3′,5′-trifluoro-6-(trifluoromethyl)-2′H,3H-spiro[imidazo[1,2-a]pyridine-2,1′-naphthalen]-4′(3′H)-one]
IC50 ([1]; Homo sapiens): 0.466 µM
IC50 [2]: 0.062 µM
IC50 [3, 4]: 0.199 µM

O=C1c2c(F)cccc2[C@@]2(C[C@@H]1F)CN1C=C(C(F)(F)F)C=C(OC(F)F)C1=N2 [Example 21]
IC50 [1]: 1.1 µM
IC50 [2]: 0.036 µM
IC50 ([3]; 48 hours incubation): 0.121 µM

N#Cc1ccc2c(c1F)CCC[C@@]21CN2C=C(C(F)(F)F)C=C(OC(F)F)C2=N1 [Example 22, (S)-8-(difluoromethoxy)-5′-fluoro-6-(trifluoromethyl)-3′,4′-dihydro-2′H,3H-spiro[imidazo[1,2-a]pyridine-2,1′-naphthalene]-6′-carbonitrile]
IC50 ([1]; Homo sapiens): 0.185 µM
IC50 [2]: 0.008 µM
IC50 [3, 4]: 0.037 µM

Fc1cccc2c1C(F)(F)CC[C@@]21CN2C=C(C(F)(F)F)C=C(OC(F)F)C2=N1 [Example 23, (S)-8-(difluoromethoxy)-4′,4′,5′-trifluoro-6-(trifluoromethyl)-3′,4′-dihydro-2′H,3H-spiro[imidazo[1,2-a]pyridine-2,1′-naphthalene]]
IC50 ([1]; Homo sapiens): 0.092 µM
IC50 [2]: 0.004 µM
IC50 [3, 4]: 0.03 µM

N#Cc1ccc2c(c1F)[C@@H](F)CC[C@@]21CN2C=C(C(F)(F)F)C=C(OC(F)F)C2=N1 [Example 25, (1′S,4'S)-8-(difluoromethoxy)-4′,5′-difluoro-6-(trifluoromethyl)-3′,4′-dihydro-2′H,3H-spiro[imidazo[1,2-a]pyridine-2,1′-naphthalene]-6′-carbonitrile]
IC50 ([1]; Homo sapiens): 0.202 µM
IC50 [2]: 0.019 µM
IC50 [3, 4]: 0.083 µM

N#CC1=CN2C[C@@]3(CCCc4c(F)cccc43)N=C2C(OC(F)F)=C1 [Example 26, (S)-8-(difluoromethoxy)-5′-fluoro-3′,4′-dihydro-2′H,3H-spiro[imidazo[1,2-a]pyridine-2,1′-naphthalene]-6-carbonitrile]
IC50 ([1]; Homo sapiens): 0.144 µM
IC50 [2]: ≤ 0.006 µM
IC50 [3, 4]: 0.034 µM

[2H]C1([2H])CC[C@@]2(CN3C=C(C#N)C=C(OC(F)F)C3=N2)c2cccc(F)c21 [Example 27, d2-(S)-8-(difluoromethoxy)-5′-fluoro-3′,4′-dihydro-2′H,3H-spiro[imidazo[1,2-a]pyridine-2,1′-naphthalene]-6-carbonitrile]
IC50 ([1]; Homo sapiens): 0.188 µM
IC50 [2]: 0.012 µM
IC50 [3, 4]: 0.102 µM

Fc1cccc2c1CCC[C@@]21CN2C=C(C(F)(F)F)C=C(OC(F)F)C2=N1 [Example 28, (S)-8-(difluoromethoxy)-5′-fluoro-6-(trifluoromethyl)-3′,4′-dihydro-2′H,3H-spiro[imidazo[1,2-a]pyridine-2,1′-naphthalene]]
IC50 ([1]; Homo sapiens): 0.169 µM
IC50 [2]: 0.005 µM
IC50 [3, 4]: 0.066 µM

FC1=CC(C(F)(F)F)=CN2C[C@@]3(CCCc4c3ccc(F)c4F)N=C12 [Example 29, (S)-5′,6′,8-trifluoro-6-(trifluoromethyl)-3′,4′-dihydro-2′H,3H-spiro[imidazo[1,2-a]pyridine-2,1′-naphthalene]]
IC50 ([1]; Homo sapiens): 1.31 µM
IC50 [2]: 0.008 µM
IC50 [3, 4]: 0.093 µM

COC1=CC(C(F)(F)F)=CN2C[C@@]3(CCC(F)(F)c4c3ccnc4Cl)N=C12 [Example 30, (S)-1′-chloro-8′,8′-difluoro-8-methoxy-6-(trifluoromethyl)-7′,8′-dihydro-3H,6′H-spiro[imidazo[1,2-a]pyridine-2,5′-isoquinoline]]
IC50 ([1]; Homo sapiens): 1.35 µM
IC50 [2]: 0.027 µM
IC50 [3, 4]: 0.129 µM
